Data: patent US6541027B1, “Lactic acid bacteria with anxiolytic properties and uses thereof” (Compagnie Gervais Danone, priority 1999, dated 2003)
“Also recorded” adds a separate entry of the source.

Legend:
SPF Wistar/AF male rats [1] = assay: Conditioned Defensive Burying test, overall stress score; assay type: in vivo, rat; details: for overall stress score during test 2: test 2 on day 8, 6 hours after administration (diazepam 3 mg/kg p.o. daily, 1 hour before test); for overall stress score: 5 ml/kg p.o. daily for 6 days
Protocol: The anxiolytic effect is evaluated using the Conditioned Defensive Burying model, which was developed from the procedure by J. P. PINEL and D. TREIT (PINEL and TREIT, J. Comp. & Physiol. Psychol., 92, 708-712, 1978; TREIT et al., Pharmacol. Biochem. Behav., 15, 619-626, 1981). This model uses the natural propensity of most rodents to bury themselves from a stressful source of stimulus (TREIT, Pharmacol. Biochem. Behav., 22, 1, 47-52, 1985; MEERT and COLPAERT, Psychopharmacology, 88, 445-450, 1986; CRAFT et al., Pharmacol. Biochem. Behav., 30, 3, 775-780, 1988; TREIT, Pharmacol. Biochem. Behav., 36, 203-205, 1990).
Seventy two SPF Wistar/AF male rats (IFFA-CREDO breeding center, 69—St-Germain sur l'Arbresle, France) weighing 320 to 340 g were used. On reception, the rats were weighed, marked and divided into groups of 4 in type F polycarbonate cages (48×27×20 cm, U.A.R., 91—Epinay-Sur-Orge, France). The animals were stalled in an air-conditioned animal house, at a temperature of 22-24° C. Food (M25 biscuits, Ets […], 77—Provins, France) and drink were available to the rats ad libitum. They were subjected to a light-darkness cycle of 12 hours (light from 24 h to 12 h).
After a week's familiarization with the laboratory conditions, the 72 rats were randomly divided into 6 groups (n=12). The rats in the different groups were all handled in the same way and under the same conditions.
Habituation and the tests were carried out in a transparent cage having the dimensions 44×28×18 cm, whose base is covered with sawdust over a thickness of 5 cm. In the middle of a lateral face, an orifice allows the attachment of an electric probe, 2 cm above the level of the sawdust.
It is a probe made of plexiglas having the dimensions 7×2×0.5 cm, covered with a copper printed circuit in which the gap between the wires is 1 mm, chosen so that one leg of the rat coming to rest on the probe easily makes contact between them, thus allowing the passage of current.
The probe is connected to a manually triggered generator of electric shocks of 0 to 8 mA (OPEN-SYSTEMS, 54—Maxeville, France).
In the faintly illuminated experimental room, a video camera was placed in front of the cage of the setup, at a distance of one meter. The camera is connected to a video recorder and to a control monitor, which are placed in an adjacent room with the electric shock generator.
The experiment was carried out according to a double blind design.
During the 2 days preceding the first test, the rats were transported from the animal house to the experimental room and introduced into the experimental device in order to habituate them to both the handling and to the cage of the device in the absence of the electrode. Each group of 4 rats was placed in the device for 20 minutes. The sawdust is changed, leveled to a uniform height of 5 cm, before the period of habituation of each of the groups.
The electric probe is inserted into the cage before the beginning of the first test. Each rat is placed in the experimental cage on the side opposite the probe.
During the first test (test 1), a single electric shock, of low intensity (2 mA) is delivered to the animal when it places a hind leg for the first time on the probe.
Following the electric shock, the behavior of each rat is recorded for 5 minutes. […] The probe is cleaned after each rat and the sawdust is changed and leveled to a uniform height of 5 cm before the test session for each cage of rats.
The products L, 3ST, 3S and 3S+P were orally administered daily at the same times, at the doses of 5 ml/kg by means of syringes provided with intragastric forced-feeding probes (HARVARD APPARATUS, 91—Les Ulis, France). The burying tests (test 1 on day 6 and test 2 on day 8) were carried out 6 hours after the administration of the products.
The positive control is diazepam (3 mg/kg), which was suspended in an aqueous solution of methyl cellulose at 1% and was orally administered daily, for the same period. […]

SPF Wistar/AF male rats [2] = assay: Sedative effect (locomotive and exploratory activity) during the Conditioned Defensive Burying test; assay type: in vivo, rat; details: Example 2; test 1 on day 6; 5 ml/kg p.o. daily (diazepam 3 mg/kg p.o.)
Protocol: The tests were carried out according to the protocol described in example 2 above, on one hundred and fifty eight SPF Wistar/AF males (IFFA-CREDO breeding center, 69—St Germain sur Arbresles, France) weighing 260 to 280 g. After a week's familiarization with the laboratory conditions, the rats were randomly divided into 13 treatment groups. The rats of the various groups were handled in the same manner and under the same conditions.
All the products were orally administered daily for 6 days at the same times at the doses of 5 ml/kg using syringes equipped with intragastric forced-feeding probes (HARVARD APPARATUS, 91—Les Ulis, France). On the day for the test, they were administered 6 hours before the burying test.
number of […]: the rat adopts the vertical position while resting on its hind legs;
number of passes from one side of the cage to another.

CN1C(=O)CN=C(c2ccccc2)c2cc(Cl)ccc21 [diazepam]
overall stress score during test 1 (SPF Wistar/AF male rats [1]; Example 2, 5 ml/kg p.o. daily, test 1 on day 6, 6 hours after administration (diazepam 3 mg/kg p.o. daily, 1 hour before test), vs. control product L): tends to reduce the overall stress score; also recorded: showed only a trend to reduce the overall stress score
overall stress score during test 2 (SPF Wistar/AF male rats [1]; Example 2, 5 ml/kg p.o. daily, vs. control product L): not significantly different from the product L
overall stress score during test 2 (SPF Wistar/AF male rats [1]; Example 2, 5 ml/kg p.o. daily, vs. control product L, listed as Diazepam): no effect which is statistically different from that of the control
phenomenon of tolerance (habituation) between test 1 and test 2 (SPF Wistar/AF male rats [1]; Example 2, daily oral administration, day 6 vs. day 8): phenomenon of tolerance observed
overall stress score (SPF Wistar/AF male rats [1]; Example 3, last dose 6 hours before test (diazepam 1-3 mg/kg p.o. over 6 days, 1 hour before test), vs. control product L): significantly lower overall stress scores; also recorded: significant antistress activity
overall stress score (SPF Wistar/AF male rats [1]; Example 5, test 1 hour after last dose (diazepam 1-3 mg/kg p.o., 1 hour before test), vs. control product L): significantly lower than that of the control product L
sedative effect during test 1 (SPF Wistar/AF male rats [2]): sedative effect
